# Results published in publication PMC3216401 (Antiviral research, 2011).
# Several values for one entry are separate records, joined by “and”; a condition that tells them apart may be missing. Identical values can stand only once. Like-named read-outs stand apart in the source and are kept apart here.
# Legend:
# [1] = test system: A/Vietnam/1203/04H (A/Vietnam/1203/04 × Ann Arbor/6/60 hybrid); assay: microbe, parasite or virus in culture; details: Influenza A virus, H1N1|H5N1, MDCK, read-out: IC50, Visual Assay
# [2] = test system: B/Malaysia/2506/2004
# [3] = test system: A/Thailand/2(Kan-1)/16/2004 (H5N1)
# [4] = test system: A/Hong Kong/213/2003 (H5N1); assay: microbe, parasite or virus in culture; details: Influenza A virus, H5N1, MDCK, read-out: IC50, Visual Assay
# [5] = test system: B/Florida/4/2006; assay: microbe, parasite or virus in culture; details: Influenza B virus, MDCK, read-out: IC50, Visual Assay
# [6] = test system: A/Hong Kong/213/2003 (H5N1); assay: microbe, parasite or virus in culture; assay type: cell-based; details: Influenza A virus, H5N1, MDCK, read-out: IC90, VYR Assay
# [7] = test system: A/Thailand/2(Kan-1)/16/2004 (H5N1); assay: microbe, parasite or virus in culture; assay type: cell-based; details: Influenza A virus, H5N1, MDCK, read-out: IC90, VYR Assay
# [8] = test system: A/Hong Kong/213/2003 (H5N1)
# [9] = test system: A/Brisbane/10/2007 (H3N2); assay: microbe, parasite or virus in culture; details: Influenza A virus, H3N2, MDCK, read-out: IC50, Neutral Red Uptake Assay
# [10] = test system: A/Thailand/2(Kan-1)/16/2004 (H5N1); assay: microbe, parasite or virus in culture; details: Influenza A virus, H5N1, MDCK, read-out: IC50, Neutral Red Uptake Assay
# [11] = test system: A/Hong Kong/213/2003 (H5N1); assay: microbe, parasite or virus in culture; details: Influenza A virus, H5N1, MDCK, read-out: IC50, Neutral Red Uptake Assay
# [12] = test system: A/Thailand/2(Kan-1)/16/2004 (H5N1); assay: microbe, parasite or virus in culture; details: Influenza A virus, H5N1, MDCK, read-out: IC50, Visual Assay
# [13] = test system: A/Gull/PA/4175/83 (H5N1); assay: microbe, parasite or virus in culture; assay type: cell-based; details: Influenza A virus, H5N1, MDCK, read-out: IC90, VYR Assay
# [14] = test system: influenza A/CA/07/2009 (H1N1); assay: microbe, parasite or virus in culture; assay type: cell-based; details: H1N1, MDCK, read-out: IC90, VYR Assay
# [15] = test system: A/Brisbane/10/2007 (H3N2); assay: microbe, parasite or virus in culture; details: Influenza A virus, H3N2, MDCK, read-out: IC50, Visual Assay
# [16] = test system: influenza viruses; assay: microbe, parasite or virus in culture; assay type: cell-based, influenza A and B viruses; details: Influenza A virus, MDCK, read-out: IC50, all viruses tested
# [17] = test system: A/Brisbane/10/2007 (H3N2)
# [18] = test system: influenza virus; details: in vivo; cited from earlier work
# [19] = test system: A/Thailand/2(Kan-1)/16/2004 (H5N1); remark: listed apart in the source
# [20] = test system: A/Duck/MN/1525/81 (H5N1); assay: microbe, parasite or virus in culture; details: Influenza A virus, H5N1, MDCK, read-out: IC50, Visual Assay
# [21] = test system: influenza A/Vietnam/1203/2004 H5N1 virus; details: in vivo
# [22] = test system: A/Hong Kong/213/2003 (H5N1); remark: listed apart in the source
# [23] = test system: A/Gull/PA/4175/83 (H5N1)
# [24] = test system: influenza A/CA/04/09 pandemic H1N1 virus; design: species or system BALB/c mice; details: mouse, in vivo
# [25] = test system: A/Duck/MN/1525/81 (H5N1); assay: microbe, parasite or virus in culture; details: Influenza A virus, H5N1, MDCK, read-out: IC50, Neutral Red Uptake Assay
# [26] = test system: Influenza A/Vietnam/1203/2004 (H5N1)
# [27] = test system: Influenza A/Vietnam/1203/2004 (H5N1); assay: microbe, parasite or virus in culture; details: H5N1, MDCK, read-out: IC50, Visual Assay
# [28] = test system: Influenza A/Vietnam/1203/2004 (H5N1); assay: microbe, parasite or virus in culture; details: H5N1, MDCK, read-out: IC50, Neutral Red Uptake Assay
# [29] = test system: Influenza A/Vietnam/1203/2004 (H5N1); assay: microbe, parasite or virus in culture; assay type: cell-based; details: H5N1, MDCK, read-out: IC90, VYR Assay
# [30] = mouse, in vivo
# [31] = test system: Influenza A/Vietnam/1203/2004 (H5N1); remark: listed apart in the source
# [32] = in vitro; details: dog, CC50 values, range, neutral red uptake assay
# [33] = test system: A/Hong Kong/213/2003H (A/Hong Kong/213/2003 × Ann Arbor/6/60 hybrid)
compound,measurement,setting,value
"Nc1ccn([C@@H]2O[C@H](CO)[C@@H](O)[C@H]2F)c(=O)n1 [2’-deoxy-2’-fluorocytidine, 2'-deoxy-2'-fluorocytidine]",IC50,[1],2.1 µM
same,"SI (CC50/IC50), Neutral Red Uptake Assay",[2],>24
same,"SI (CC50/IC50), Visual Assay",[3],>676 ± 204
same,IC50,[4],0.05 ± 0.01 µM
same,IC50,[5],1 µM
same,IC90,[6],1.54 µM
same,IC90,[7],0.69 µM
same,"SI (CC50/IC50), Neutral Red Uptake Assay",[8],>447 ± 216
same,IC50,[9],14 µM
same,IC50,[10],0.72 ± 0.51 µM
same,IC50,[11],0.27 ± 0.14 µM
same,IC50,[12],0.16 ± 0.04 µM
same,IC90,[13],6.1 µM
same,IC90,[14],4.6 µM
same,IC50,[15],1 µM
same,IC50,[16],< 15 µM
same,"SI (CC50/IC50), Neutral Red Uptake Assay",[17],>7.1
same,Effect on virus lung titers in the mouse model,[18],did not reduce virus lung titers
same,"SI (CC50/IC50), Neutral Red Uptake Assay",[19],>251 ± 249
same,IC50,[20],0.25 µM
same,Maximum tolerated effective dose,"[21]; female, BALB/c, mouse, ip",60 mg/kg/day
same,Lung Score ± SD,[21]; mouse,0.4 ± 0.25 and 0.2 ± 0.27
same,Mice protected from lethal effects,[21]; mouse,60%
same,"Protection from death, i.p.",[21]; mouse,"partially, but significantly protected from death"
same,"Protection from mortality, per os",[21]; mouse,not protected from mortality
same,Virus Lung Titers ± SD,[21]; mouse,3.60 ± 1.303 Log10/g and 4.01 ± 0.713 Log10/g
same,"SI (CC50/IC50), Visual Assay",[22],>1954 ± 553
same,"SI (CC50/IC50), Neutral Red Uptake Assay",[23],>91
same,Live/Total,[24],5/10 and 4/10 and 0/10
same,Mean Day of Death ± SD,[24],7.8 ± 1.3 days and 8.9 ± 1.2 days and 9.3 ± 2.1 days
same,IC50,[25],0.21 µM
"Nc1ccn([C@@H]2O[C@H](CO)[C@@H](O)C2(F)F)c(=O)n1 [2’-deoxy-2’, 2’-difluorocytidine, reference compound]",IC50,[1],< 0.32 µM
same,"SI (CC50/IC50), Neutral Red Uptake Assay",[26],>3100
same,"SI (CC50/IC50), Neutral Red Uptake Assay",[2],>1500
same,IC50,[27],< 0.032 µM
same,IC50,[28],< 0.032 µM
same,IC50,[5],< 0.32 µM
same,IC50,[9],0.16 µM
same,IC90,[13],0.13 µM
same,IC90,[29],0.03 µM
same,IC90,[14],0.13 µM
same,Tolerability in uninfected mice,[30],well tolerated
same,IC50,[15],0.13 µM
same,"SI (CC50/IC50), Neutral Red Uptake Assay",[17],8.1
same,"SI (CC50/IC50), Visual Assay",[31],>3100
same,CC50,[32],1.1 to 280 µM
same,IC50,[20],< 0.32 µM
same,Inhibition in the H5N1 mouse model,[21],not inhibitory
same,Toxicity in the H5N1 mouse model,[21],very toxic
same,Protection against lethal challenge,[21]; mouse,not significantly effective
same,"SI (CC50/IC50), Neutral Red Uptake Assay",[23],370
same,"SI (CC50/IC50), Visual Assay",[33],>3100
same,IC50,[25],< 0.32 µM
